For this data set the following is noted: 101.33 kPa, Liquid.

SMILES strings stand for the structures. ± gives the expanded uncertainty stated by the source.

The mass density is mass per unit of volume. For `C=CCOC(=O)C(=C)C` [2-propenyl 2-methylpropenoate], the mass density is given as 927.997 ± 0.17 kg/m3 (298.15 K) and 917.423 ± 0.18 kg/m3 (308.15 K).

Take `C=COC(C)=O` [vinyl acetate]: the mass density by setting is: (298.15 K) 925.775 ± 0.16 kg/m3; (308.15 K) 913.134 ± 0.16 kg/m3.

Turning to `COC(C)(C)C` [2-methoxy-2-methylpropane], the mass density reads like this: (298.15 K) 735.356 ± 0.27 kg/m3; (308.15 K) 724.85 ± 0.28 kg/m3.

Consider `C=C(C)C(=O)O` [2-methyl-2-propenoic acid], for which the mass density worked out at 1009.13 ± 0.13 kg/m3 (298.15 K) and 998.64 ± 0.13 kg/m3 (308.15 K).

Turning to `C=C(C)C(=O)OCCCC` [butyl 2-methyl-2-propenoate], the mass density was 890.438 ± 0.28 kg/m3 (298.15 K) and 880.857 ± 0.28 kg/m3 (308.15 K).

Source of the values: the NIST ThermoML archive (doi:10.1016/j.jct.2004.11.012).
